Data reported in patent US8269026B2, “Lupane derivatives useful for treating HIV” (priority 2008, dated 2012).

system: HIV-1 (HIVIIIB) replication in MT2 cell line; experiment: HIV-1 replication in MT2 cell line with and without 30% human serum (viral RT activity in supernatant); type: cell-based; conditions: Human immunodeficiency virus 1, MT2 cells, with 30% human serum, average IC50 if tested more than once, read-out: MT2 (HIVIIIB) with HS 30% IC50 range
Procedure, shortened: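 Read-out is supernatant reverse transcriptase activity on day 5 post-infection, giving IC50 and IC90. Compounds were titrated in complete medium ± 30% human serum, re-dosed after 3 days, on MT2 cells exposed for 3 h to HIVIIIB at MOI 0.5 then washed.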

Structure (SMILES) | IC50
CC(C)C1=C2C3CCC4[C@@]5(C)CC[C@H](OC(=O)CC(C)(C)C(=O)O)C(C)(C)C5CC[C@@]4(C)[C@]3(C)CC[C@@]2(NC(=O)N2CCC(NC(=O)OC(C)(C)C)CC2)CC1=O (stereo partly drawn) [17-20, 3β-O-(3′,3′-Dimethylsuccinyl)-17β-[(4-tert-butoxycarbonylamino-piperidine-1-carbonyl)-amino]-21-oxolup-18-ene] | < 199 nM
CC(C)C1=C2C3CCC4[C@@]5(C)CC[C@H](OC(=O)CC(C)(C)C(=O)O)C(C)(C)C5CC[C@@]4(C)[C@]3(C)CC[C@@]2(NC(=O)N2CC[C@@H](NC(=O)OC(C)(C)C)C2)CC1=O (stereo partly drawn) [17-40, 3β-O-(3′,3′-Dimethylsuccinyl)-17β-[((R)-3-tert-butyloxycarbonylamino-pyrrolidine-1-carbonyl)-amino]-21-oxolup-18-ene] | < 199 nM
CC(C)C1=C2C3CCC4[C@@]5(C)CC[C@H](OC(=O)CC(C)(C)C(=O)O)C(C)(C)C5CC[C@@]4(C)[C@]3(C)CC[C@@]2(NC(=O)NC(C)c2ccccn2)CC1=O (stereo partly drawn) [17-72, 3β-O-(3′,3′-Dimethylsuccinyl)-17β-[N′-(1-pyridin-2-yl-ethyl)-ureido]-21-oxolup-18-ene] | < 199 nM
CC(C)NC(=O)N[C@@]12CC[C@]3(C)C(CCC4[C@@]5(C)CC[C@H](OC(=O)CC(C)(C)C(=O)O)C(C)(C)C5CC[C@]43C)C1=C(C(C)C)C(=O)C2 (stereo partly drawn) [17-4, 3β-O-(3′,3′-Dimethylsuccinyl)-17β-[N′-(isopropyl)ureido]-21-oxolup-18-ene] | < 199 nM
Cc1nnc(CNC(=O)N[C@@]23CC[C@]4(C)C(CCC5[C@@]6(C)CC[C@H](OC(=O)CC(C)(C)C(=O)O)C(C)(C)C6CC[C@]54C)C2=C(C(C)C)C(=O)C3)o1 (stereo partly drawn) [17-65, 3β-O-(3′,3′-Dimethylsuccinyl)-17β-[N′-(2-methyl-[1,3,4]oxadiazol-2-ylmethyl)-ureido]-21-oxolup-18-ene] | < 199 nM
CC(C)C1=C2[C@H]3CC[C@@H]4[C@@]5(C)CC[C@H](OC(=O)CC(C)(C)C(=O)O)C(C)(C)[C@@H]5CC[C@@]4(C)[C@]3(C)CC[C@@]2(NC(=O)CCN2CCCC2=O)CC1=O [19-41, 3β-O-(3′,3′-Dimethylsuccinyl)-17β-[3-(2-oxo-pyrrolidin-1-yl)-propionamido]-21-oxolup-18-ene] | < 199 nM
CC(C)C1=C2C3CCC4[C@@]5(C)CC[C@H](OC(=O)CC(C)(C)C(=O)O)C(C)(C)C5CC[C@@]4(C)[C@]3(C)CC[C@@]2(NC(=O)NCc2cccnc2)CC1=O (stereo partly drawn) [17-12, 3β-O-(3′,3′-Dimethylsuccinyl)-17β-[N′-(pyridin-3-ylmethyl)ureido]-21-oxolup-18-ene] | < 199 nM
CC(C)C1=C2C3CCC4[C@@]5(C)CC[C@H](OC(=O)CC(C)(C)C(=O)O)C(C)(C)C5CC[C@@]4(C)[C@]3(C)CC[C@@]2(NC(=O)N[C@@H](C)C2CCCCC2)CC1=O (stereo partly drawn) [17-54, 3β-O-(3′,3′-Dimethylsuccinyl)-17β-[N′-((S)-1-cyclohexyl-ethyl)ureido]-21-oxolup-18-ene] | < 199 nM
CC(C)C1=C2C3CCC4[C@@]5(C)CC[C@H](OC(=O)CC(C)(C)C(=O)O)C(C)(C)C5CC[C@@]4(C)[C@]3(C)CC[C@@]2(NC(=O)N2CCC(F)(F)C2)CC1=O (stereo partly drawn) [17-58] | < 199 nM
CC(C)C1=C2C3CCC4[C@@]5(C)CC[C@H](OC(=O)CC(C)(C)C(=O)O)C(C)(C)C5CC[C@@]4(C)[C@]3(C)CC[C@@]2(NC(=O)OCC2CC2)CC1=O (stereo partly drawn) [20-3, 3β-O-(3′,3′-Dimethylsuccinyl)-17β-cyclopropylmethoxycarbonylamino-21-oxolup-18-ene] | < 199 nM

same assay, conditions: Human immunodeficiency virus 1, MT2 cells, without human serum, average IC50 if tested more than once, read-out: MT2 (HIVIIIB) IC50 range

Structure (SMILES) | IC50
CC(C)NC(=O)N[C@@]12CC[C@]3(C)C(CCC4[C@@]5(C)CC[C@H](OC(=O)CC(C)(C)C(=O)O)C(C)(C)C5CC[C@]43C)C1=C(C(C)C)C(=O)C2 (stereo partly drawn) [17-4, 3β-O-(3′,3′-Dimethylsuccinyl)-17β-[N′-(isopropyl)ureido]-21-oxolup-18-ene] | < 199 nM
CC(C)C1=C2C3CCC4[C@@]5(C)CC[C@H](OC(=O)CC(C)(C)C(=O)O)C(C)(C)C5CC[C@@]4(C)[C@]3(C)CC[C@@]2(NC(=O)OCC2CC2)CC1=O (stereo partly drawn) [20-3, 3β-O-(3′,3′-Dimethylsuccinyl)-17β-cyclopropylmethoxycarbonylamino-21-oxolup-18-ene] | < 199 nM
